Measurements taken from PubChem BioAssay (NCI).
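Dose response: 5 concentrations. Exposure: 48 h. Format: 96-well plates. Endpoint: linear interpolation; highest concentration if not reached. TGI denotes the concentration required for complete inhibition of growth.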

The compounds below were run on A498 renal (assay: DTP human tumour cell line panel, 48 h).
In the case of Cc1ccc2nc(NS(=O)(=O)c3cc(C)c(Cl)cc3S)[nH]c2c1, the TGI was > 100 µM. For COc1cc(OC)c2c(=O)c3cccc(C)c3n(C)c2c1, the TGI was > 100 µM. O=C1NC(N/N=C\c2ccccc2)=N/C1=C/c1ccccc1 was tested, and the TGI was > 100 µM. With CC(C)(C)OC(=O)CCCCCNC(=O)CCCCCNC(=O)CCC(CN(CC(=O)OCc1ccccc1)CC(=O)OCc1ccccc1)N(CC(=O)OCc1ccccc1)CC(=O)OCc1ccccc1 (stereo not given) the TGI was > 100 µM. In the case of O=[N+]([O-])/C(Cl)=C(/C(Cl)=C(Cl)Cl)N1CCOCC1, the TGI was 7.79 µM. CN=c1sc2nc(C#N)c(C#N)nc2n1C showed a TGI of 35.2 µM. In the case of C[C@@H]1CC[C@@H]2[C@@H](C1)O[C@@H]([C@@H](C)OCc1ccccc1)SC2(C)C, the TGI was 32 µM. With Cc1cn(C2CC(N=[N+]=[N-])C(COP(=O)(O)OCC3OC(n4cc(F)c(=O)[nH]c4=O)CC3O)O2)c(=O)[nH]c1=O (stereo not given) the TGI was > 100 µM. With COC(=O)C(=O)Nc1cc2c3c(c1)Oc1cccc4c1C3(C)c1c(cccc1O2)O4 the TGI was > 100 µM.

The compounds below were run on A549 NSCLC (assay: DTP human tumour cell line panel, 48 h).
For Cc1ccc2nc(NS(=O)(=O)c3cc(C)c(Cl)cc3S)[nH]c2c1, the TGI was > 100 µM. In the case of COc1cc(OC)c2c(=O)c3cccc(C)c3n(C)c2c1, the TGI was > 100 µM. With O=C1NC(N/N=C\c2ccccc2)=N/C1=C/c1ccccc1 the TGI was > 100 µM. In the case of CC(C)(C)OC(=O)CCCCCNC(=O)CCCCCNC(=O)CCC(CN(CC(=O)OCc1ccccc1)CC(=O)OCc1ccccc1)N(CC(=O)OCc1ccccc1)CC(=O)OCc1ccccc1 (stereo not given), the TGI was > 100 µM. With O=[N+]([O-])/C(Cl)=C(/C(Cl)=C(Cl)Cl)N1CCOCC1 the TGI was 15.6 µM. CN=c1sc2nc(C#N)c(C#N)nc2n1C was tested, and the TGI was 33.9 µM. Work on C[C@@H]1CC[C@@H]2[C@@H](C1)O[C@@H]([C@@H](C)OCc1ccccc1)SC2(C)C yielded a TGI of 83.4 µM. With Cc1cn(C2CC(N=[N+]=[N-])C(COP(=O)(O)OCC3OC(n4cc(F)c(=O)[nH]c4=O)CC3O)O2)c(=O)[nH]c1=O (stereo not given) the TGI was > 100 µM. For COC(=O)C(=O)Nc1cc2c3c(c1)Oc1cccc4c1C3(C)c1c(cccc1O2)O4, the TGI was > 100 µM.

What follows are compounds tested on ACHN renal (assay: DTP human tumour cell line panel, 48 h).
For Cc1ccc2nc(NS(=O)(=O)c3cc(C)c(Cl)cc3S)[nH]c2c1, the TGI was > 100 µM. With COc1cc(OC)c2c(=O)c3cccc(C)c3n(C)c2c1 the TGI was > 100 µM. For O=C1NC(N/N=C\c2ccccc2)=N/C1=C/c1ccccc1, the TGI was 34.5 µM. With CC(C)(C)OC(=O)CCCCCNC(=O)CCCCCNC(=O)CCC(CN(CC(=O)OCc1ccccc1)CC(=O)OCc1ccccc1)N(CC(=O)OCc1ccccc1)CC(=O)OCc1ccccc1 (stereo not given) the TGI was > 100 µM. For O=[N+]([O-])/C(Cl)=C(/C(Cl)=C(Cl)Cl)N1CCOCC1, the TGI was 20.5 µM. For CN=c1sc2nc(C#N)c(C#N)nc2n1C, the TGI was 60.2 µM. Compound C[C@@H]1CC[C@@H]2[C@@H](C1)O[C@@H]([C@@H](C)OCc1ccccc1)SC2(C)C has a TGI of 31.6 µM. In the case of Cc1cn(C2CC(N=[N+]=[N-])C(COP(=O)(O)OCC3OC(n4cc(F)c(=O)[nH]c4=O)CC3O)O2)c(=O)[nH]c1=O (stereo not given), the TGI was > 100 µM. COC(=O)C(=O)Nc1cc2c3c(c1)Oc1cccc4c1C3(C)c1c(cccc1O2)O4 was tested, and the TGI was > 100 µM.

Each compound was assayed on BT-549 breast (assay: DTP human tumour cell line panel, 48 h).
Cc1ccc2nc(NS(=O)(=O)c3cc(C)c(Cl)cc3S)[nH]c2c1 was tested, and the TGI was > 100 µM. In the case of COc1cc(OC)c2c(=O)c3cccc(C)c3n(C)c2c1, the TGI was > 100 µM. With O=C1NC(N/N=C\c2ccccc2)=N/C1=C/c1ccccc1 the TGI was 71.2 µM. With CC(C)(C)OC(=O)CCCCCNC(=O)CCCCCNC(=O)CCC(CN(CC(=O)OCc1ccccc1)CC(=O)OCc1ccccc1)N(CC(=O)OCc1ccccc1)CC(=O)OCc1ccccc1 (stereo not given) the TGI was > 100 µM. In the case of O=[N+]([O-])/C(Cl)=C(/C(Cl)=C(Cl)Cl)N1CCOCC1, the TGI was 8.86 µM. With CN=c1sc2nc(C#N)c(C#N)nc2n1C the TGI was 62.8 µM. C[C@@H]1CC[C@@H]2[C@@H](C1)O[C@@H]([C@@H](C)OCc1ccccc1)SC2(C)C showed a TGI of 42.6 µM. With Cc1cn(C2CC(N=[N+]=[N-])C(COP(=O)(O)OCC3OC(n4cc(F)c(=O)[nH]c4=O)CC3O)O2)c(=O)[nH]c1=O (stereo not given) the TGI was > 100 µM. With COC(=O)C(=O)Nc1cc2c3c(c1)Oc1cccc4c1C3(C)c1c(cccc1O2)O4 the TGI was > 100 µM.

These compounds were tested on CCRF-CEM leukemia (assay: DTP human tumour cell line panel, 48 h).
Work on Cc1ccc2nc(NS(=O)(=O)c3cc(C)c(Cl)cc3S)[nH]c2c1 yielded a TGI of 69.8 µM. COc1cc(OC)c2c(=O)c3cccc(C)c3n(C)c2c1 was tested, and the TGI was > 100 µM. In the case of O=C1NC(N/N=C\c2ccccc2)=N/C1=C/c1ccccc1, the TGI was > 100 µM. With CC(C)(C)OC(=O)CCCCCNC(=O)CCCCCNC(=O)CCC(CN(CC(=O)OCc1ccccc1)CC(=O)OCc1ccccc1)N(CC(=O)OCc1ccccc1)CC(=O)OCc1ccccc1 (stereo not given) the TGI was > 100 µM. With O=[N+]([O-])/C(Cl)=C(/C(Cl)=C(Cl)Cl)N1CCOCC1 the TGI was 7.23 µM. With CN=c1sc2nc(C#N)c(C#N)nc2n1C the TGI was > 100 µM. C[C@@H]1CC[C@@H]2[C@@H](C1)O[C@@H]([C@@H](C)OCc1ccccc1)SC2(C)C gave a TGI of 34.5 µM. In the case of Cc1cn(C2CC(N=[N+]=[N-])C(COP(=O)(O)OCC3OC(n4cc(F)c(=O)[nH]c4=O)CC3O)O2)c(=O)[nH]c1=O (stereo not given), the TGI was > 100 µM. Compound COC(=O)C(=O)Nc1cc2c3c(c1)Oc1cccc4c1C3(C)c1c(cccc1O2)O4 has a TGI of 8.7 µM.

What follows are compounds tested on EKVX NSCLC (assay: DTP human tumour cell line panel, 48 h).
For Cc1ccc2nc(NS(=O)(=O)c3cc(C)c(Cl)cc3S)[nH]c2c1, the TGI was > 100 µM. With COc1cc(OC)c2c(=O)c3cccc(C)c3n(C)c2c1 the TGI was > 100 µM. Work on O=C1NC(N/N=C\c2ccccc2)=N/C1=C/c1ccccc1 yielded a TGI of 74.5 µM. In the case of CC(C)(C)OC(=O)CCCCCNC(=O)CCCCCNC(=O)CCC(CN(CC(=O)OCc1ccccc1)CC(=O)OCc1ccccc1)N(CC(=O)OCc1ccccc1)CC(=O)OCc1ccccc1 (stereo not given), the TGI was > 100 µM. For O=[N+]([O-])/C(Cl)=C(/C(Cl)=C(Cl)Cl)N1CCOCC1, the TGI was 21.6 µM. In the case of CN=c1sc2nc(C#N)c(C#N)nc2n1C, the TGI was 73.8 µM. C[C@@H]1CC[C@@H]2[C@@H](C1)O[C@@H]([C@@H](C)OCc1ccccc1)SC2(C)C showed a TGI of 67.4 µM. For Cc1cn(C2CC(N=[N+]=[N-])C(COP(=O)(O)OCC3OC(n4cc(F)c(=O)[nH]c4=O)CC3O)O2)c(=O)[nH]c1=O (stereo not given), the TGI was 22.7 µM. For COC(=O)C(=O)Nc1cc2c3c(c1)Oc1cccc4c1C3(C)c1c(cccc1O2)O4, the TGI was > 100 µM.

What follows are compounds tested on HCT-15 colon (assay: DTP human tumour cell line panel, 48 h).
For Cc1ccc2nc(NS(=O)(=O)c3cc(C)c(Cl)cc3S)[nH]c2c1, the TGI was > 100 µM. In the case of COc1cc(OC)c2c(=O)c3cccc(C)c3n(C)c2c1, the TGI was > 100 µM. In the case of O=C1NC(N/N=C\c2ccccc2)=N/C1=C/c1ccccc1, the TGI was > 100 µM. For CC(C)(C)OC(=O)CCCCCNC(=O)CCCCCNC(=O)CCC(CN(CC(=O)OCc1ccccc1)CC(=O)OCc1ccccc1)N(CC(=O)OCc1ccccc1)CC(=O)OCc1ccccc1 (stereo not given), the TGI was > 100 µM. O=[N+]([O-])/C(Cl)=C(/C(Cl)=C(Cl)Cl)N1CCOCC1 was tested, and the TGI was 3.24 µM. CN=c1sc2nc(C#N)c(C#N)nc2n1C gave a TGI of 41.2 µM. Compound C[C@@H]1CC[C@@H]2[C@@H](C1)O[C@@H]([C@@H](C)OCc1ccccc1)SC2(C)C has a TGI of 36.8 µM. In the case of Cc1cn(C2CC(N=[N+]=[N-])C(COP(=O)(O)OCC3OC(n4cc(F)c(=O)[nH]c4=O)CC3O)O2)c(=O)[nH]c1=O (stereo not given), the TGI was > 100 µM. In the case of COC(=O)C(=O)Nc1cc2c3c(c1)Oc1cccc4c1C3(C)c1c(cccc1O2)O4, the TGI was > 100 µM.

These compounds were tested on KM12 colon (assay: DTP human tumour cell line panel, 48 h).
In the case of Cc1ccc2nc(NS(=O)(=O)c3cc(C)c(Cl)cc3S)[nH]c2c1, the TGI was > 100 µM. In the case of COc1cc(OC)c2c(=O)c3cccc(C)c3n(C)c2c1, the TGI was > 100 µM. O=C1NC(N/N=C\c2ccccc2)=N/C1=C/c1ccccc1 was tested, and the TGI was > 100 µM. With CC(C)(C)OC(=O)CCCCCNC(=O)CCCCCNC(=O)CCC(CN(CC(=O)OCc1ccccc1)CC(=O)OCc1ccccc1)N(CC(=O)OCc1ccccc1)CC(=O)OCc1ccccc1 (stereo not given) the TGI was > 100 µM. Compound O=[N+]([O-])/C(Cl)=C(/C(Cl)=C(Cl)Cl)N1CCOCC1 has a TGI of 13.1 µM. With CN=c1sc2nc(C#N)c(C#N)nc2n1C the TGI was > 67.8 µM. Work on C[C@@H]1CC[C@@H]2[C@@H](C1)O[C@@H]([C@@H](C)OCc1ccccc1)SC2(C)C yielded a TGI of 34.4 µM. For Cc1cn(C2CC(N=[N+]=[N-])C(COP(=O)(O)OCC3OC(n4cc(F)c(=O)[nH]c4=O)CC3O)O2)c(=O)[nH]c1=O (stereo not given), the TGI was > 45.5 µM. For COC(=O)C(=O)Nc1cc2c3c(c1)Oc1cccc4c1C3(C)c1c(cccc1O2)O4, the TGI was > 100 µM.

The compounds below were run on LOX IMVI melanoma (assay: DTP human tumour cell line panel, 48 h).
Compound Cc1ccc2nc(NS(=O)(=O)c3cc(C)c(Cl)cc3S)[nH]c2c1 has a TGI of 73.2 µM. COc1cc(OC)c2c(=O)c3cccc(C)c3n(C)c2c1 was tested, and the TGI was > 100 µM. O=C1NC(N/N=C\c2ccccc2)=N/C1=C/c1ccccc1 was tested, and the TGI was > 100 µM. CC(C)(C)OC(=O)CCCCCNC(=O)CCCCCNC(=O)CCC(CN(CC(=O)OCc1ccccc1)CC(=O)OCc1ccccc1)N(CC(=O)OCc1ccccc1)CC(=O)OCc1ccccc1 (stereo not given) was tested, and the TGI was > 100 µM. In the case of O=[N+]([O-])/C(Cl)=C(/C(Cl)=C(Cl)Cl)N1CCOCC1, the TGI was 17.3 µM. Work on CN=c1sc2nc(C#N)c(C#N)nc2n1C yielded a TGI of 46.5 µM. C[C@@H]1CC[C@@H]2[C@@H](C1)O[C@@H]([C@@H](C)OCc1ccccc1)SC2(C)C gave a TGI of 41.9 µM. For Cc1cn(C2CC(N=[N+]=[N-])C(COP(=O)(O)OCC3OC(n4cc(F)c(=O)[nH]c4=O)CC3O)O2)c(=O)[nH]c1=O (stereo not given), the TGI was > 100 µM. In the case of COC(=O)C(=O)Nc1cc2c3c(c1)Oc1cccc4c1C3(C)c1c(cccc1O2)O4, the TGI was > 100 µM.

These compounds were tested on RXF 393 renal (assay: DTP human tumour cell line panel, 48 h).
In the case of Cc1ccc2nc(NS(=O)(=O)c3cc(C)c(Cl)cc3S)[nH]c2c1, the TGI was > 100 µM. In the case of COc1cc(OC)c2c(=O)c3cccc(C)c3n(C)c2c1, the TGI was > 100 µM. O=C1NC(N/N=C\c2ccccc2)=N/C1=C/c1ccccc1 gave a TGI of 73.1 µM. In the case of CC(C)(C)OC(=O)CCCCCNC(=O)CCCCCNC(=O)CCC(CN(CC(=O)OCc1ccccc1)CC(=O)OCc1ccccc1)N(CC(=O)OCc1ccccc1)CC(=O)OCc1ccccc1 (stereo not given), the TGI was > 100 µM. O=[N+]([O-])/C(Cl)=C(/C(Cl)=C(Cl)Cl)N1CCOCC1 gave a TGI of 7.93 µM. CN=c1sc2nc(C#N)c(C#N)nc2n1C was tested, and the TGI was 40.5 µM. C[C@@H]1CC[C@@H]2[C@@H](C1)O[C@@H]([C@@H](C)OCc1ccccc1)SC2(C)C gave a TGI of 30.7 µM. Cc1cn(C2CC(N=[N+]=[N-])C(COP(=O)(O)OCC3OC(n4cc(F)c(=O)[nH]c4=O)CC3O)O2)c(=O)[nH]c1=O (stereo not given) was tested, and the TGI was > 100 µM. COC(=O)C(=O)Nc1cc2c3c(c1)Oc1cccc4c1C3(C)c1c(cccc1O2)O4 showed a TGI of 56.9 µM.
